The source of these data is ChEMBL document CHEMBL1201862, “PubChem BioAssay data set” (2004).

“And” between values parts separate entries of the source, which are not always exact repeats. Equal entries are not always repeated.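 These data come from cells grown in 96-well plates and exposed to compound for 48 hours at five concentrations. GI50: concentration for 50% inhibition of growth.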 The source made the active and inactive calls. No stated cut-off is given here; in the data, active = GI50 up to about 1.1 µM and inactive = higher.

Some test systems named below: A549; IGROV-1; HOP-92; SF-268; SR; M14; HT-29; NCI-H460; SK-MEL-2; SN12C; HOP-62; SK-MEL-5; SNB-75; OVCAR-4; MDA-MB-231; Hs-578T; COLO 205; NCI/ADR-RES; MOLT-4; Malme-3M; PC-3; SK-OV-3; NCI-H522; LOX IMVI; SF-295; T47D; OVCAR-8; SW-620; UACC-62; UACC-257; HCT-15; OVCAR-3; EKVX; ACHN; TK-10; SF-539; 786-0; RXF 393; CAKI-1; K562.
Common to all, as to assay: inhibition of tumour cell growth, NCI panel, 48 h

On to `c1ccc2c3nnc(c2c1)SCCSCCSc1nnc(c2ccccc12)SCCSCCS3`, for which the GI50 in the assay on A549, with IGROV-1, in the assay with HOP-92, with SF-268, in the assay on SR and in the assay with M14 was > 100 µM (inactive) in each case. The GI50 in the assay with HT-29, in the assay on NCI-H460, in the assay with SK-MEL-2, in the assay with SN12C, in the assay on HOP-62 and in the assay with SK-MEL-5 was > 100 µM (inactive) in each case. Also, the GI50 in the assay on SNB-75, in the assay on OVCAR-4, with MDA-MB-231, in the assay on Hs-578T, in the assay with COLO 205 and in the assay with NCI/ADR-RES was > 100 µM (inactive) throughout. Further, the GI50 in the assay on MOLT-4, in the assay with Malme-3M, with PC-3, in the assay with SK-OV-3, in the assay with NCI-H522 and in the assay with LOX IMVI was > 100 µM (inactive) each time. In addition, the GI50 in the assay on SF-295, in the assay on T47D, with OVCAR-8, with SW-620, in the assay with UACC-62 and in the assay on UACC-257 was > 100 µM (inactive) each time. In addition, the GI50 with HCT-15 is over 100 µM; in the assay with OVCAR-3, > 100 µM (inactive); with EKVX it was > 100 µM (inactive); with ACHN, > 100 µM (inactive).
In the case of `CC(=O)OCC1OC(n2c(-c3ccccc3)c(/N=N/c3ccc(Cl)cc3)c(C)c(C#N)c2=S)C(OC(C)=O)C(OC(C)=O)C1OC(C)=O` (stereo not given), the GI50 in the assay with TK-10 was 33.8 µM (inactive) and 24.6 µM (inactive); with SF-539 it was 14 µM (inactive) and 19.6 µM (inactive); in the assay on 786-0, 19.5 µM (inactive) and 23.9 µM (inactive); with HOP-62 it was 15.6 µM (inactive) and 27.8 µM (inactive); with RXF 393 it was 17.4 µM (inactive) and 13.2 µM (inactive); with Hs-578T, 15.8 µM (inactive) and 15.3 µM (inactive). Also, the GI50 is 4.91 µM (inactive) and 3.56 µM (inactive) in the assay on MOLT-4; 9.4 µM (inactive) and 5.09 µM (inactive) in the assay with PC-3; 7.01 µM (inactive) and 12.4 µM (inactive) in the assay with SW-620; 24.3 µM (inactive) and 14.3 µM (inactive) with CAKI-1; 6.76 µM (inactive) and 11.8 µM (inactive) in the assay on K562.
